Assay [1] addresses T1, MATE1 (Homo sapiens, UniProt Q96FL8).
T1 sequence (Q96FL8 1-570): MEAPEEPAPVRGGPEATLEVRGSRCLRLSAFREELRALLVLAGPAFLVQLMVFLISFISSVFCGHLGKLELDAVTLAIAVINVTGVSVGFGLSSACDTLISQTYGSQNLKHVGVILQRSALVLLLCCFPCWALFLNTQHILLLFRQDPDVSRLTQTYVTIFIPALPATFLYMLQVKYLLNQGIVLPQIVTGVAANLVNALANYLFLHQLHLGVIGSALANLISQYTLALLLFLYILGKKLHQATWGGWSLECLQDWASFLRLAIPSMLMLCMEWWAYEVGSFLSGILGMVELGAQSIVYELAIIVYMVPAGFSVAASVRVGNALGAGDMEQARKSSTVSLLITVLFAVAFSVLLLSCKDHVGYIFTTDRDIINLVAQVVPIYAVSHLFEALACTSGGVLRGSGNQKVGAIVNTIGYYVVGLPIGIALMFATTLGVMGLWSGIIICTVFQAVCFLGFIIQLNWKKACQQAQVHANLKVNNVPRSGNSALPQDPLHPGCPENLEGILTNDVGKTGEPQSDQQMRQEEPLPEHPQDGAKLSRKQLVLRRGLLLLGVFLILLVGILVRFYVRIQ
Description: Uptake ratio in MATE1-overexpressing HEK293 cells vs empty vector (2.5 μM, 1 min, HPLC-MS/MS). Format: cell-based. The settings on record: for MATE1 ratio in this study: Table S1.

Assay [2] deals with MATE2K (Homo sapiens, UniProt Q86VL8). Put plainly: Uptake ratio in MATE2K-overexpressing HEK293 cells vs empty vector (2.5 μM, 1 min, HPLC-MS/MS). Format: cell-based. Particulars: for MATE2K ratio in this study: Table S1.
The mark [3] stands for this setting: fold uptake over empty vector, 2.5 μM, 1 min.
[4] abbreviates: uptake ratio MATE1-overexpressing vs empty-vector HEK293 cells, 2.5 μM, 1 min, mean.
[5] abbreviates: uptake ratio MATE2K-overexpressing vs empty-vector HEK293 cells, 2.5 μM, 1 min, mean.
Setting [6] is: mean ratio of uptake in MATE1-overexpressing HEK293 cells vs empty vector, 2.5 μM, 1 min.
Setting [7] is: mean ratio of uptake in MATE2K-overexpressing HEK293 cells vs empty vector, 2.5 μM, 1 min.

Like-named read-outs stand apart in the source and are kept apart here.

Chain of MATE2K (Q86VL8 1-566 isoform Q86VL8-3): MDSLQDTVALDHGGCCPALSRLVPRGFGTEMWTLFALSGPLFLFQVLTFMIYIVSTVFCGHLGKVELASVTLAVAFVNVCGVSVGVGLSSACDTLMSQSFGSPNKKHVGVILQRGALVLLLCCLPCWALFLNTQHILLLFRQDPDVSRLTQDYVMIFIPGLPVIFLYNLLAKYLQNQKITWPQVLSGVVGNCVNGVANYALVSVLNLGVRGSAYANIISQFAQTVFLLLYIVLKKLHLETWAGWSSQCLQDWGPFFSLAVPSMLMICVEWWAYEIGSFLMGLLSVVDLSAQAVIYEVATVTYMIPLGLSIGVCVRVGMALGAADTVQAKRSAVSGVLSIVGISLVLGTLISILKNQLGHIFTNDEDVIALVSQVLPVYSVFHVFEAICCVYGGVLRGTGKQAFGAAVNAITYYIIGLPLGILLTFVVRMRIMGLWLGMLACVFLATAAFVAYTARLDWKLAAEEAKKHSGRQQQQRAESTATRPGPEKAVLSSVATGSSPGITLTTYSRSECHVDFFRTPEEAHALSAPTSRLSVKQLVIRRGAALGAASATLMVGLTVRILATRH

Consider `C[N+](C)(C)C[C@@H](CC(=O)[O-])OC(=O)CCC(=O)O` [Succinylcarnitine], for which, in assay [1] (setting [3]), the MATE1 ratio was 0.54. Also, in assay [1] (setting [4]), the MATE1 is listed as 0.54. Also, the MATE2K ratio in assay [2] (setting [3]) is 1.38. In addition, the MATE2 in assay [2] (setting [5]) was found to be 1.38.
For `COc1ccccc1OCC(O)CN1CCN(CC(=O)Nc2c(C)cccc2C)CC1` (stereo not drawn) [Ranolazine], in assay [1] (setting [3]), the MATE1 ratio is on record as 1.11. Besides, in assay [1] (setting [4]), the MATE1 was 1.11. In addition, the MATE2K ratio in assay [2] (setting [3]) is reported as 1.30. Moreover, the MATE2 in assay [2] (setting [5]) is on record as 1.3.
For `CC(C)C(=O)O[C@H](CC(=O)[O-])C[N+](C)(C)C` [Isobutyrylcarnitine], the MATE1 ratio in assay [1] (setting [3]) was found to be 1.40. The MATE2K ratio in assay [2] (setting [3]) amounted to 1.35.
For `CC(C)Nc1cccnc1N1CCN(C(=O)c2cc3cc(NS(C)(=O)=O)ccc3[nH]2)CC1` [Delavirdine], in that order: 1.19 and 1.09.
As for `NCCc1c[nH]c2c(O)cc(O)cc12` [5,7-Dihydroxytryptamine], in assay [1], the “MATE1 (uptake ratio)” value is 1.13 and the MATE1 ratio turned out to be 1.13. In assay [2], the “MATE2 (uptake ratio)” value is recorded as 0.84 and the MATE2K ratio was found to be 0.84.
Consider `C[N+]1(CCC(C(N)=O)(c2ccccc2)c2ccccc2)CCCCC1` [Fenpiverinium], for which, in assay [1] (setting [3]), the MATE1 ratio was 15.19. In assay [2] (setting [3]), the MATE2K ratio worked out at 1.35.
`CNC1(C)C2CCC(C2)C1(C)C` (stereo not drawn) [Mecamylamine]: the MATE1 ratio in assay [1] (setting [3]) is 1.20. The MATE2K ratio in assay [2] (setting [3]) is listed as 1.05.
On to `O=C(C[S+]([O-])Cc1ccco1)NC/C=C\COc1cc(CN2CCCCC2)ccn1` (stereo not drawn) [Lafutidine], for which the MATE1 ratio in assay [1] (setting [3]) came to 1.41. Also, the MATE2K ratio in assay [2] (setting [3]) amounted to 1.48.
On the same counts, the results for `Cc1cnc(Nc2ccc(OCCN3CCCC3)cc2)nc1Nc1cccc(S(=O)(=O)NC(C)(C)C)c1` [Fedratinib] are 1.16 and 0.87.
As to `C/C=C(\C)C(=O)OC(CC(=O)[O-])C[N+](C)(C)C` (stereo not drawn) [Tiglylcarnitine], the MATE1 in assay [1] (setting [4]) is listed as 0.96. In addition, the MATE2 in assay [2] (setting [5]) is 0.76.
Take `N=C(Nc1ccccc1)Nc1ccccc1` [1,3-Diphenylguanidine]: in assay [1], the “MATE1 (uptake ratio)” value is 1.53 and the MATE1 ratio was 1.53. Moreover, in assay [2], the “MATE2 (uptake ratio)” value stood at 1.27 and the MATE2K ratio stood at 1.27.
For `COc1ccc(CCN)cc1` [4-Methoxyphenethylamine], in assay [1], the “MATE1 (uptake ratio)” value is on record as 1.4 and the MATE1 ratio is listed as 1.40. In assay [2], the “MATE2 (uptake ratio)” value turned out to be 1.23 and the MATE2K ratio was 1.23.
Take `CNC(=O)c1cccnc1` [Methylnicotinamide, N-Methylnicotinamide]: in assay [1] (2.5 μM, 1 min), the “MATE1 ratio in this study” value was 33.89. The MATE1 ratio in assay [1] (setting [3]) is listed as 33.89. Further, the “MATE2K ratio in this study” value in assay [2] (2.5 μM, 1 min) was 5.40. For the same molecule, the MATE2K ratio in assay [2] (setting [3]) turned out to be 5.40.
In the case of `CNCc1ccc(CSCCN/C(=C/[N+](=O)[O-])NC)o1` [N-Desmethylranitidine], the MATE1 ratio in assay [1] (setting [3]) worked out at 23.54. Also, the MATE2K ratio in assay [2] (setting [3]) was 14.02.
For `CC(=O)Nc1ccc(OCC(O)CNC(C)C)cc1` (stereo not drawn) [Practolol], in that order: 21.52 and 8.46.
On to `O=C(c1ccc(OCCN2CCCCC2)cc1)c1c(-c2ccc(O)cc2)sc2cc(O)ccc12` [Raloxifene], for which, in assay [1] (setting [3]), the MATE1 ratio came to 1.12. Moreover, the MATE1 in assay [1] (setting [4]) came out at 1.12. Further, the MATE2K ratio in assay [2] (setting [3]) is 1.12. For the same molecule, in assay [2] (setting [5]), the MATE2 was 1.12.
Take `OC(CCN1CCCCC1)(c1ccccc1)c1ccccc1` [Pridinol]: the MATE1 ratio in assay [1] (setting [3]) was determined as 1.18. The MATE2K ratio in assay [2] (setting [3]) is reported as 1.27.
For `OCc1cc(C(O)CNCCCCCCOCCCCc2ccccc2)ccc1O` (stereo not drawn) [Salmeterol], the MATE1 ratio in assay [1] (setting [3]) was determined as 1.78. Besides, in assay [1] (setting [4]), the MATE1 worked out at 1.78. Besides, the MATE2K ratio in assay [2] (setting [3]) was determined as 1.17. Also, the MATE2 in assay [2] (setting [5]) worked out at 1.17.
With `NCCCC(=O)O` [Gamma-aminobutyric acid], the MATE1 ratio in assay [1] (setting [3]) stood at 0.90. For the same molecule, in assay [2] (setting [3]), the MATE2K ratio is listed as 0.87.
In the case of `COc1cc2c(cc1OC)-c1c(C)c3ccc(OC)c(OC)c3c[n+]1CC2` [Dehydrocorydaline], in assay [1], the MATE1 ratio amounted to 9.25. Also, the MATE2K ratio in assay [2] turned out to be 2.85.
As for `NC12CC3CC(CC(C3)C1)C2` [Amantadine], in assay [1], the “MATE1 (uptake ratio)” value came out at 1.42 and the MATE1 ratio was found to be 1.42. In assay [2], the “MATE2 (uptake ratio)” value is 1.48 and the MATE2K ratio was 1.48.
For `CC(C)C[C@H](NC(=O)[C@H](Cc1ccccc1)NC(=O)c1cnccn1)B(O)O` [Bortezomib], the MATE1 ratio in assay [1] (setting [3]) was found to be 1.20. Further, in assay [1] (setting [6]), the “MATE1 (uptake ratio)” value is recorded as 1.2. Further, in assay [2] (setting [3]), the MATE2K ratio was 1.10. For the same molecule, in assay [2] (setting [7]), the “MATE2 (uptake ratio)” value was determined as 1.1.
For the molecule `CC[C@@H]1C(=O)OC[C@@H]1Cc1cncn1C` [Pilocarpine], in assay [1] (setting [3]), the MATE1 ratio was found to be 1.39. In addition, the MATE2K ratio in assay [2] (setting [3]) worked out at 1.39.
In the case of `Nc1nc(NC2CC2)c2ncn([C@H]3C=C[C@@H](CO)C3)c2n1` [Abacavir], the MATE1 ratio in assay [1] (setting [3]) was 0.94. For the same molecule, the “MATE1 (uptake ratio)” value in assay [1] (setting [6]) was 0.94. Besides, the MATE2K ratio in assay [2] (setting [3]) was 1.25. For the same molecule, in assay [2] (setting [7]), the “MATE2 (uptake ratio)” value came to 1.25.
Turning to `O=C(O[C@H]1C[N+]2(CCCOc3ccccc3)CCC1CC2)C(O)(c1cccs1)c1cccs1` [Aclidinium], in assay [1] (setting [3]), the MATE1 ratio was found to be 4.73. Also, the “MATE1 (uptake ratio)” value in assay [1] (setting [6]) was 4.73. In addition, in assay [2] (setting [3]), the MATE2K ratio turned out to be 1.17. The “MATE2 (uptake ratio)” value in assay [2] (setting [7]) turned out to be 1.17.
As for `CO[C@H]1/C=C/O[C@@]2(C)Oc3c(C)c(O)c4c(O)c(c(/C=N/N5CCN(C)CC5)c(O)c4c3C2=O)NC(=O)/C(C)=C\C=C\[C@H](C)[C@H](O)[C@@H](C)[C@@H](O)[C@@H](C)[C@H](OC(C)=O)[C@@H]1C` [Rifampicin], in assay [1] (setting [3]), the MATE1 ratio is 1.02. Also, in assay [1] (setting [4]), the MATE1 came to 1.02. Moreover, in assay [2] (setting [3]), the MATE2K ratio is reported as 0.93. Also, in assay [2] (setting [5]), the MATE2 was determined as 0.93.
For the molecule `C#CCN[C@@H]1CCc2ccccc21` [Rasagiline (S), Rasagiline], the MATE1 ratio in assay [1] (setting [3]) was 1.46. The MATE1 in assay [1] (setting [4]) was 1.46. For the same molecule, in assay [2] (setting [3]), the MATE2K ratio stood at 1.46. In assay [2] (setting [5]), the MATE2 turned out to be 1.46.
As to `COc1ccc(C(CN(C)C)C2(O)CCCCC2)cc1` (stereo not drawn) [Venlafaxine], the MATE1 in assay [1] is recorded as 1.22. Moreover, the MATE2 in assay [2] is given as 1.3.
Take `CC(C)(C)NCC(O)c1ccc(O)c(CO)c1` [Salbutamol (S), Salbutamol]: the “MATE1 ratio in this study” value in assay [1] (2.5 μM, 1 min) turned out to be 8.88. For the same molecule, the MATE1 ratio in assay [1] (setting [3]) was determined as 8.88. The MATE1 in assay [1] (setting [4]) was found to be 8.88. The “MATE2K ratio in this study” value in assay [2] (2.5 μM, 1 min) is recorded as 5.09. Besides, in assay [2] (setting [3]), the MATE2K ratio was found to be 5.09. Moreover, in assay [2] (setting [5]), the MATE2 was found to be 5.09.
On to `CC(C)(C)NCC(O)COc1cccc2c1CCC(=O)N2` (stereo not drawn) [Carteolol], for which the MATE1 ratio in assay [1] (setting [3]) was 7.43. The “MATE1 (uptake ratio)” value in assay [1] (setting [6]) is recorded as 7.43. Besides, in assay [2] (setting [3]), the MATE2K ratio was found to be 6.67. In addition, the “MATE2 (uptake ratio)” value in assay [2] (setting [7]) worked out at 6.67.
With `C[C@@H]1O[C@@]2(CS1)CN1CCC2CC1` [Cevimeline], the MATE1 ratio in assay [1] (setting [3]) worked out at 1.59. Also, the “MATE1 (uptake ratio)” value in assay [1] (setting [6]) is given as 1.59. The MATE2K ratio in assay [2] (setting [3]) was determined as 1.35. Further, in assay [2] (setting [7]), the “MATE2 (uptake ratio)” value was found to be 1.35.
In the case of `Cc1ccc(C(=O)Oc2ccc(C(O)CNC(C)(C)C)cc2OC(=O)c2ccc(C)cc2)cc1` (stereo not drawn) [Bitolterol], the MATE1 ratio in assay [1] (setting [3]) is 0.38. In assay [1] (setting [6]), the “MATE1 (uptake ratio)” value came to 0.38. Also, the MATE2K ratio in assay [2] (setting [3]) amounted to 0.57. The “MATE2 (uptake ratio)” value in assay [2] (setting [7]) was 0.57.

(Values after article PMC12207590, “Substrate Specificity of the Organic Cation Transporters MATE1 and MATE2K and Functional Overlap with OCT1 and OCT2” (Journal of Medicinal Chemistry, 2025).)
